This passage reports inhibition results from ChEMBL document CHEMBL1221219, “Selective blockade of 2-arachidonoylglycerol hydrolysis produces cannabinoid behavioral effects” (Nat Chem Biol, 2009).

For the test, the target named is T1, Diacylglycerol lipase-beta (Homo sapiens) (UniProt Q8NCG7).
T1 sequence (whole entry): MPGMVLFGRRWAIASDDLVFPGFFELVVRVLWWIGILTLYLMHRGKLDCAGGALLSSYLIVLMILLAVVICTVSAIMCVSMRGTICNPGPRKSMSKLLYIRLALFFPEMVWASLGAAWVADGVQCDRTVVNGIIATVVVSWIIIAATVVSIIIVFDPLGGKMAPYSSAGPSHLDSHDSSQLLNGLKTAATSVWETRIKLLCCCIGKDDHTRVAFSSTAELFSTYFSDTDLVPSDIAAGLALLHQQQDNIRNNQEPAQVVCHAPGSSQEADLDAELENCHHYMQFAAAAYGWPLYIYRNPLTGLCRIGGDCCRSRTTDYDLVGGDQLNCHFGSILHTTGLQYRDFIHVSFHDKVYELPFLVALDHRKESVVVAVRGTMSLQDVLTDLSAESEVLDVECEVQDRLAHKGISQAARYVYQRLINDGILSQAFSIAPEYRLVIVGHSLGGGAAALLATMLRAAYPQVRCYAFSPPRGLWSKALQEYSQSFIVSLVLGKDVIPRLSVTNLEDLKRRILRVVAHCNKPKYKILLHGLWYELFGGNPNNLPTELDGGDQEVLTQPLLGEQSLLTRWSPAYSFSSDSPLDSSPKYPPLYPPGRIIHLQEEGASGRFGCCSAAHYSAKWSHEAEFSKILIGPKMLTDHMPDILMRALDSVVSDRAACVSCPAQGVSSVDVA
The test is described as follows: Inhibition of recombinant DAGLbeta expressed in HEK293 cells assessed as hydrolysis of 1-stearoyl-2-arachidonoyl-glycerol to 2-AG at 25 uM after 30 mins by LC-MS method. The test is classed as cell-based.

Molecules are shown by their SMILES. Calls of active or inactive are those of the source. No cut-off for these calls is given here.

As to `O=C(Oc1ccc([N+](=O)[O-])cc1)N1CCC(C(O)(c2ccc3c(c2)OCO3)c2ccc3c(c2)OCO3)CC1`, the inhibition result was “inactive”.
